Experimental findings from patent EP0701444B1, “METHODS AND COMPOSITIONS FOR INDUCING SLEEP” (Purdue Pharma Ltd., priority 1993, dated 1994) are described below.

For orientation: IC50 means the point on the concentration scale where inhibition reaches its midpoint. A low value points to higher potency.

Counter-ions that a name gives are not always drawn.

In this test the target is steroid site on the GABAA receptor-chloride channel complex. Briefly: [35S]TBPS binding assay. Set-up: species or system Male Sprague-Dawley rats. To be noted: inhibition of [35S]TBPS (2 nM) binding, rat cerebral cortex P2 membranes, 5 µM GABA, 90 minute incubation at 22°C. The protocol:
TBPS binding assays were conducted according to the following procedures, which are described in Gee, K.W.; Lawrence, L.J.; and Yamamura, H. I., "Modulation of the Chloride Ionophore by Benzodiazepine Receptor Ligands Influence of Gamma-Aminobutyric Acid and Ligand Efficacy," Molecular Pharmacology, 30:218, 1986. Male Sprague-Dawley rats (200-250g) were anesthetized with carbon dioxide and decapitated. The rats' brains were removed and the cerebral cortices were dissected and homogenized in 10 volumes of 0.32 M sucrose. Tissue was centrifuged at 1000 x g for 10 minutes and the resultant supernatant was centrifuged at 9,000 g for 20 minutes. The resultant pellet was resuspended in 10 volumes of 200 mM NaCl/50 mM Na-K phosphate pH 7.4 buffer (binding buffer) and then centrifuged at 9,000 x g for 10 minutes. This washing procedure was repeated twice and the final P2 pellet was resuspended in the binding buffer. For the binding assay, [^35S] TBPS (2 nM) was co-incubated in binding buffer with P2 membranes and 5 µM GABA and either 1) no additions to measure total binding; 2) 2 µM unlabeled TPBS to measure nonspecific binding; 3) the neurosteroid ranging in concentration from 1 Nm to 10µM. Following a 90 minute incubation at 22°C, the suspension was filtered and the bound radioactivity was determined by liquid scintillation counting. […] A lower IC50 indicates higher affinity for the steroid site on the GABAA receptor-chloride channel complex. Table 1 gives the IC50 values of representative steroids used in the present invention.
`CC(=O)[C@H]1CC[C@H]2[C@@H]3CC[C@H]4C[C@@](O)(C(F)(F)F)CC[C@@H]4[C@H]3CC[C@]12C` [3α-Hydroxy-3β-trifluoromethyl-19-nor-5α-pregnan-20-one] registered an IC50 of 251 nM.

In the case of `C[C@@]1(O)CC[C@@]2(C)[C@@H](CC[C@@H]3[C@@H]2CC[C@]2(C)[C@@H](C(=O)COC(=O)CCC(=O)O)CC[C@@H]32)C1` [3α,21-dihydroxy-3β-methyl-5α-pregnan-20-one 21-Hemisuccinate], the IC50 stood at 241 nM.

`CC(C)(O)[C@H]1CC[C@H]2[C@@H]3CC[C@H]4C[C@H](O)CC[C@]4(C)[C@H]3CC[C@]12C` [3α,20-dihydroxy-20-methyl-5α-pregnane]: the IC50 came out at 151 nM.

Compound `C[C@@H](O)[C@H]1CC[C@H]2[C@@H]3CC[C@@H]4C[C@H](O)CC[C@]4(C)[C@H]3CC[C@]12C` [3α,20b-dihydroxy-5β-pregnane] showed a 50% inhibitory concentration (IC50) of 206 nM.

Turning to `CC[C@@]1(O)CC[C@@]2(C)[C@@H](CC[C@@H]3[C@@H]2CC[C@]2(C)[C@@H](C(C)=O)CC[C@@H]32)C1` [3α-hydroxy-3β-ethyl-5α-pregnan-20-one], the IC50 was determined as 265 nM.

With `C[C@]12CC[C@@H](O)C[C@@H]1CC[C@@H]1[C@@H]2CC[C@]2(C)[C@@H](C#N)CC[C@@H]12` [3α-hydroxy-17b-cyano-5α-androstane], the IC50 amounted to 67 nM.

`CC(=O)[C@H]1CC[C@H]2[C@@H]3CC[C@@H]4C[C@](C)(O)CC[C@@H]4[C@H]3CC[C@]12C` [3α-Hydroxy-3β-methyl-5β-19-nor-pregnan-20-one]: the IC50 was 26 nM.

Turning to `C#C[C@@]1(O)CC[C@H]2[C@H](CC[C@@H]3[C@@H]2CC[C@]2(C)[C@@H](C(C)=O)CC[C@@H]32)C1` [3β-Ethynyl-3α-hydroxy-19-nor-5β-pregnan-20-one], the IC50 amounted to 44 nM. Against the preceding compound, the IC50 is about 1.7-fold higher.

For the compound `CC(=O)[C@H]1CC[C@H]2[C@@H]3CC[C@H]4C[C@@](O)(C#CC(C)O)CC[C@]4(C)[C@H]3CC[C@]12C` (stereo partly drawn) [3α-Hydroxy-3β-[3'(RS)-hydroxybutynyl]-5α-pregnan-20-one], the IC50 amounted to 140 nM.

For `CCOC[C@@]1(O)CC[C@@]2(C)[C@@H](CC[C@@H]3[C@@H]2CC[C@]2(C)[C@@H](C(C)=O)CC[C@@H]32)C1` [3β-(Ethoxymethyl)-3α-hydroxy-5α-pregnan-20-one], the IC50 was found to be 154 nM. The IC50 values of the last two compounds are within 1.5-fold of each other.

On to `COC[C@@]1(O)CC[C@@]2(C)[C@@H](CC[C@@H]3[C@@H]2CC[C@]2(C)[C@@H](C(C)=O)CC[C@@H]32)C1` [3α-hydroxy-3β-methoxymethyl-5α-pregnan-20-one], for which the IC50 amounted to 67 nM.

On to `C#C[C@H]1CC[C@H]2[C@@H]3CC[C@H]4C[C@H](O)CC[C@]4(C)[C@H]3CC[C@]12C` [3α-Hydroxy-17b-ethynyl-5α-androstane], for which the IC50 worked out at 254 nM.

Take `C#C[C@@]1(O)CC[C@H]2[C@H](CC[C@@H]3[C@@H]2CC[C@]2(C)/C(=C\C)CC[C@@H]32)C1` [3β-Ethynyl-3α-hydroxy-5β-19-nor-pregn-17(z)-ene]: the IC50 was found to be 460 nM.

For the compound `CC(=O)[C@H]1CC[C@H]2[C@@H]3CC[C@@H]4C[C@@](O)(C#CCC(C)OC(=O)CCC(=O)O)CC[C@]4(C)[C@H]3CC[C@]12C` (mixture of isomers) [3α-Hydroxy-3β-[4'(R/S)-hydroxypentynyl]-5β-pregnan-20-one 4'(R/S)-hemisuccinate sodium salt], the IC50 worked out at 153 nM.

With `CC(=O)[C@H]1CC[C@H]2[C@@H]3CC[C@H]4C[C@@](O)(CC#N)CC[C@]4(C)[C@H]3CC[C@]12C` [3β-cyanomethyl-3α-hydroxy-5α-pregnan-20-one], the IC50 amounted to 439 nM.

`C/C=C1/CC[C@H]2[C@@H]3CC[C@@H]4C[C@](C)(O)CC[C@@H]4[C@H]3CC[C@]12C` [3α-Hydroxy-3β-methyl-5β-19-nor-pregn-17 (Z)-ene] showed a half-inhibitory concentration (IC50) of 154 nM.

Regarding `C[C@@]12CCC[C@H]1[C@@H]1CC[C@H]3C[C@H](O)CC[C@]3(C)[C@H]1CC2` [3α-Hydroxy-5α-androstane], the IC50 came out at 252 nM.

Turning to `CC/C=C1/CC[C@H]2[C@@H]3CC[C@@H]4C[C@H](O)CC[C@]4(C)[C@H]3CC[C@]12C` [3α-hydroxy-21-methyl-5β-pregnan-17(20)(Z)-ene], the IC50 amounted to 217 nM.

For the compound `CC(=O)c1ccc(C#C[C@@]2(O)CC[C@@]3(C)[C@H](CC[C@@H]4[C@@H]3CC[C@]3(C)[C@@H](C(C)=O)CC[C@@H]43)C2)cc1` [3β-(4'-Acetylphenyl)ethynyl-3α-hydroxy-5β-pregnan-20-one], the IC50 turned out to be 14 nM. Against the preceding compound, the IC50 is about 16-fold lower.

The compound `CC(=O)[C@H]1CC[C@H]2[C@@H]3CC[C@@H]4C[C@@](O)(C#Cc5ccccc5O)CC[C@]4(C)[C@H]3CC[C@]12C` [3β-(2'-Hydroxyphenyl)ethynyl-3α-hydroxy-5β-pregnan-20-one] returned an IC50 of 192 nM.

In the case of `COC[C@@]1(O)CC[C@@]2(C)[C@H](CC[C@@H]3[C@@H]2CC[C@]2(C)[C@@H](C(C)=O)CC[C@@H]32)C1` [3α-hydroxy-30-methoxymethyl-5β-pregnan-20-one], the IC50 came to 40 nM.

With `C=CCC[C@@]1(O)CC[C@@]2(C)[C@@H](CC[C@@H]3[C@@H]2CC[C@]2(C)[C@@H](C(C)=O)CC[C@@H]32)C1` [3β-(But-3-enyl)-3α-hydroxy-5α-pregnan-20-one], the IC50 came out at 242 nM. Against the preceding compound, the IC50 is about 6-fold higher.

As to `CCCCCC#C[C@@]1(O)CC[C@@]2(C)[C@H](CC[C@@H]3[C@@H]2CC[C@]2(C)[C@@H](C(C)=O)CC[C@@H]32)C1` [3β-(1-Heptynyl)-3α-hydroxy-5β-pregnan-20-one], the IC50 was found to be 65 nM.
